Measurements taken from patent publication US20210108197A1, “SHRNA EXPRESSION CASSETTE, POLY[…] CARRYING SAME, AND APPLICATION THEREOF” (priority 2017, published 2021).

Key:
[1] = test system: HBV; assay: In vivo pharmacodynamic experiment, HBV DNA in serum; parameters: species or system HBV transgenic BALB/c; conditions: intravenous injection, LAM 150 mg/kg, ETV 3.2 mg/kg, intron2 3 × 10^10, intron5 1.5 × 10^11 vg/animal, relative, D 0 = 1
Procedure: (§1) Two drugs having two structures scAAV2/8-H1-shRNA2-intron2 and scAAV2/8-H1-shRNA2-intron5 were compared with the commercial drugs lamivudine and entecavir for evaluating in vivo efficacy. The administration mode was intravenous injection, and 14 days was a blood collection period. After separating serum samples, HBsAg and HBV DNA were detected. The grouping of animal experiments is shown as follows:
(§2) The experiment was conducted for total of […] (38 weeks). For the experimental method, see Example 2 “4. Expression and detection of target gene” The detection results are shown in FIG. 40 and Table 2-12 (BsAg detection), and FIG. 41 and Table 2-13 (BV DNA detection).

[2] = test system: HBV; assay: In vivo pharmacodynamic experiment, HBsAg in serum; parameters: species or system HBV transgenic BALB/c; conditions: intravenous injection, LAM 150 mg/kg, ETV 3.2 mg/kg, intron2 3 × 10^10, intron5 1.5 × 10^11 vg/animal, relative, D 0 = 1
Procedure: as §1, §2

Structure (SMILES)	HBV DNA detection in serum, D 0 [1]	HBV DNA detection in serum, D 14 [1]	HBV DNA detection in serum, D 28 [1]	HBV DNA detection in serum, D 35 [1]	HBV DNA detection in serum, D 49 [1]	HBV DNA detection in serum, D 70 [1]	HBV DNA detection in serum, D 98 [1]	HBV DNA detection in serum, D 126 [1]	HBV DNA detection in serum, D 154 [1]	HBV DNA detection in serum, D 182 [1]	HBV DNA detection in serum, D 210 [1]	HBV DNA detection in serum, D 238 [1]	HBV DNA detection in serum, D 266 [1]	HBsAg detection in serum, D 0 [2]	HBsAg detection in serum, D 14 [2]	HBsAg detection in serum, D 28 [2]	HBsAg detection in serum, D 35 [2]	HBsAg detection in serum, D 49 [2]	HBsAg detection in serum, D 70 [2]	HBsAg detection in serum, D 98 [2]	further results
Nc1ccn([C@@H]2CS[C@H](CO)O2)c(=O)n1 [LAM, Lamivudine]	1	0.69	0.87	0.72	0.68	1.26	0.41	0.24	0.56	0.8	0.28	0.26	0.07	1	0.98	0.96	1.23	1.21	1.01	1.19	HBsAg detection in serum, D 126 [2]: 1.46; HBsAg detection in serum, D 154 [2]: 0.66; HBsAg detection in serum, D 182 [2]: 0.76; HBsAg detection in serum, D 210 [2]: 1.16; HBsAg detection in serum, D 238 [2]: 0.5; HBsAg detection in serum, D 266 [2]: 0.54
C=C1[C@H](CO)[C@@H](O)C[C@@H]1n1cnc2c(=O)[nH]c(N)nc21 [ETV, Entecavir]	1	8.68	1.24	1.08	1.25	3.93	1.05	0.72	1.06	3.33	5.5	2.96	1.55	1	1.51	1.55	1.8	1.4	1.33	1.34	HBsAg detection in serum, D 126 [2]: 1.48; HBsAg detection in serum, D 154 [2]: 0.75; HBsAg detection in serum, D 182 [2]: 0.81; HBsAg detection in serum, D 210 [2]: 1.57; HBsAg detection in serum, D 238 [2]: 0.83; HBsAg detection in serum, D 266 [2]: 0.94
